US20160009769A1, “PROCESSES FOR ISOLATING SALICYCLIC ACID RECEPTORS” (NEOPRO LABS, LLC, priority 2013, published 2016)

Tests used:
SARP [1] = experiment: Dynamic light scattering (DLS) of SARP micelles/gel in water; assay type: biochemical, Sauromatum; details: for micelle size after 20 min: 20 min after addition to 0.1 pM SARP in water; for micelle size upon addition: added to 0.1 pM SARP in water
Method: Organized droplets are seen under the light microscope when SARP solution is spread on a glass slide. Upon addition of DTT or mercaptoethanol the micelle size reduces to ˜300 nm, and after 20 min, the size increases back to ˜800 nm. […] The swelling and shrinking were discontinuous. Addition of 10 μM ATP stops the oscillation for ˜30 min. and then it is resumed at the same kinetics.
FIG. 11. SARP was purified from D-day appendices using RP-HPLC-ESI-MS. Purified SARP was solubilized in distilled water and analyzed using DLS. […] T, period.
Upon addition of water to the dry protein at a final concentration of 0.1 pM, micelles formed with a uniform size of ˜800 nm (FIG. 5). Upon addition of DTT or β-mercaptoethanol the micelle size reduced to ˜300 nm, and after 20 min, the size increased back to ˜800 nm. […] Addition of 10 μM ATP stopped the oscillation for ˜30 min. and then it resumed with the same kinetics.

SARP [2] = experiment: Reduction of tetrazolium salts by SARP in the presence of pyridine; assay type: biochemical; details: tetrazolium salt 4 μM, pyridine 30%, 5 min at room temperature; mean of two determinations
Excerpt: Additionally and as described herein, SARPs are capable of unidirectionally transferring one or two electrons to an electron acceptor such as 3-(4,5-dimethyl thiazol-2-yl-(2,5-diphenyl) tetrazolium bromide (MTT), nitro blue tetrazolium (NBT) or neotetrazolium chloride (Neo-NBT), or to ferricytochrome c.

SARP [3] = experiment: UV spectra of SARP in the presence of ligands; assay type: biochemical; details: 1 pM SARP
Method: FIG. 14. UV spectra of SAR in the presence of 2,6-DHBA. Freshly dissolved SAR was incubated with 2,6-DHBA and samples were taken for spectral analysis at the same time when the effect of SA on SAR was determined. The data present acquired spectra after baseline subtraction of each compound added to SAR. Every 3 min. after the addition of SAR a spectrum was recorded. A, The first 6 spectra were downward relative to the baseline (solid line). The following spectra were upward (broken line). (ME, β-mercaptoethanol).
FIG. 15. UV spectra of SAR in the presence of GTP, SA, and ATP. Freshly dissolved SARP was incubated with GTP and samples were taken for spectral analysis. Later, ME and SA were added to the sample, and finally ATP was added to the sample. The data present acquired spectra after baseline subtraction of each compound added to SARP. […] (ME, β-mercaptoethanol).
Thus, according to certain related embodiments, UV absorbance spectra of SARP may fluctuate over time when absorbance measurements are collected over a range of wavelengths and at a plurality of time points, if a salicylate-related compound is present or, under other chemical environments as described below. […] In certain preferred embodiments the change may be detected at wavelengths from (inclusively) 190 nm to 280 nm, where it will be appreciated that selection of a suitable wavelength may vary as a function of several factors including protein concentration, solution composition (e.g., absorbance properties of buffers, salts, etc.), instrument sensitivity, and other related attributes of a spectroscopic configuration.

Human SARP = experiment: ESI-MS conformation of SARP purified from SK-N-SH cells treated with SA; assay type: cell-based; details: SK-N-SH cells treated with 10 μM
Excerpt: The charge state distribution (CSD) of the human SARP is identical to its plant counterpart from the Sauromatum appendix during heat-production. […] This regulatory activity behaves as a metabolic switch that switching on and off heat-production. SARP can be a metabolic switch in the cytoplasm and mitochondria. […] However, if SA level fluctuates, SARP can be either in state B (compact) or state A (extanded) and consequently, can trigger oscillatory thermogenicity. In a more complex model, the cytoplasmic and the mitochondrial switch will have to be to be in state B. There are four possibilities for the output for both switches. When both switches are in states B, a singular event of heat-production occurs. Other options are cytoplasmic SARP in state A and mitochondrial SARP in either state A or B. Or, cytoplasmic SARP in state B and mitochondrial SARP in state A.
FIG. 16. Purification of SARP from SK-N-SH cells using perfusion chromatography. SARP was purified using RP-HPLC/ESI-MS. TIC chromatogram with solvent gradient overlay (A). Ion current chromatograms of m/z 1139 (B) and 1178, (C) corresponding to [M+30H]^30+ and […] charge states of the protein. Solvent A is 0.05% TFA in aqueous solution and solvent B is 0.05% aqueous TFA in ACN:IP at a ratio 2:1.
FIG. 17. Electrospray ionization mass spectrua of SARP from the SK-N-SH cells and Sauromatum appendix. […]

Sauromatum appendix = details: cited from earlier work; for triggering of heat production: S. guttatum
SARP [4] = experiment: Effect of SA on the levels of SARP in the Sauromatum appendix; design: species or system Sauromatum guttatum; details: D-1 appendix placed in 10 μM SA, protein extracted next morning; control in water 160
Method: In certain embodiments SARP is isolated using organic solutions. Tissues are ground n a juicer grinder in an organic extraction solution containing 50% IP, 2 mM β-mercaptoethanol, 0.5 mM EDTA, 5 mM butylated hydroxy-toluene, 0.1% tocopherol acetate, 0.1% polyvinylpoly-pyrrolidone (insoluble, Sigma-Aldrich Corp.) in 40 mM imidazole/HCl buffer, pH 7.0, at a weight/volume ratio of 1 g of tissue per 5 ml of extraction solution. The extract is centrifuged at 15,000 g for 10 min and the pellet is discarded. A strong cationic resin (DOWEX X-50, Sigma-Aldrich Corp.) is added to the supernatant (30 mg resin per ml) and stirred for 2.5 h at 4° C. The mixture is then centrifuged at 30 g for 2 min, and the supernatant is discard. The Dowex resin is washed several times, first with the extraction solution and finally with distilled water until a clear wash is obtained. Subsequently, the resin is again washed 2 times with 0.15 M phosphate buffer, pH 7.0. […] The protein solution is dialyzed using a 12-14 kDa cut-off dialysis bag against 3 L of distilled water at 4° C., the water is changed twice during 24 h. The content of the dialysis bag is removed and centrifuged at 10,000 g for 15 min. The pellet is used for SARP purification.
In certain embodiments SARP is purified using a reversed-phase high-performance liquid chromatography (RP-HPLC) on-line to elecrosray ionization-mass spectromer (ESI-MS). […]

SARP [5] = experiment: ESI-MS charge state distribution (conformation) of SARP from Sauromatum appendix after treatment with salicylates; design: species or system Sauromatum guttatum
Excerpt: It is an aspect of the present invention to provide a method of detection and characterization of SARP using RP-HPLC/ESI-MS. This is accomplished using on-line splitting of 5 to 10% of the effluent from the UV detector to a Micromass Quattro II tandem quadrupole MS fitted with an ESI source (Waters Inc.) via a variable splitter allowing manual fraction collection. This instrument is operated in a positive ESI mode at a probe tip voltage of 3.6 kV and a cone voltage of 45 V. The source and nebulizer temperatures are maintained at 150 and 400° C., respectively, using N2 as both nebulizing and bath gas. The instrument is calibrated using water clusters over the range of 100-2400 Da with data acquisition is carried out from m/z 500 to 2000 in the continuum-scanning mode at 450 Da sec^1. Instrument tuning, mass calibration, data acquisition, processing and display are accomplished using MassLynx™ and MaxEnt™ software (Waters Inc.). This procedure provided a protein molecular mass with an accuracy of ˜0.1%.
FIG. 13. […] The ESI-MS spectra is different that that of ASA and SA. It is more expanded, lower m/z values.
Monomeric SARP undergoes a large-scale conformation transition from one state to another in the Sauromatum appendix during development. […] The concentration of SA in the appendix tissue is ˜1 μg/g fresh wt^4, and it is equivalent to ˜7 μM, within the range of this experiment.

[6] = higher concentrations, 100 and 200 μM

Nc1ncnc2c1ncn2[C@@H]1O[C@H](COP(=O)(O)OP(=O)(O)OP(=O)(O)O)[C@@H](O)[C@H]1O [ATP]
time the oscillation is stopped (SARP [1]; 10 μM added to oscillating SARP gel): ~30 min

OCCS [β-mercaptoethanol]
micelle size after 20 min (SARP [1]): ~800 nm
micelle size upon addition (SARP [1]): ~300 nm

c1ccc(-c2nn(-c3ccccc3)[n+](-c3ccc(-c4ccc(-[n+]5nc(-c6ccccc6)nn5-c5ccccc5)cc4)cc3)n2)cc1 [NeoT, neotetrazolium chloride]
O.D.530 (SARP [2]): 0.06

COc1cc(-c2ccc(-n3nc(-c4ccccc4)n[n+]3-c3ccc([N+](=O)[O-])cc3)c(OC)c2)ccc1-n1nc(-c2ccccc2)n[n+]1-c1ccc([N+](=O)[O-])cc1 [NBT, nitro blue tetrazolium]
O.D.530 (SARP [2]): 0.14

O[C@H](CS)[C@H](O)CS (racemic) [DTT, dithiothreitol]
micelle size after 20 min (SARP [1]): ~800 nm
micelle size upon addition (SARP [1]): ~300 nm

Cc1nc(-[n+]2nc(-c3ccccc3)nn2-c2ccccc2)sc1C.[Br-] [MTT]
O.D.530 (SARP [2]): 0.17

O=C(O)c1ccccc1O [SA, salicylic acid]
effect on UV spectrum of SARP (SARP [3]; incubation of SA and GTP and ATP): appearance of new bands from 197 to 230
effect on UV spectrum of SARP (SARP [3]; incubation with NADH): a shift in a band from 197 to 230
conformation of human SARP (Human SARP): a shift to a much more compact conformation
temperature rise of appendix section (Sauromatum appendix; added on D-1 morning, the next morning, untreated section stays at ambient temperature): up to 32 °C
effect on micelle size (SARP [1]; 1 pM, molar ratio [SARP]/[SA]<0.1): immediately decreased the micelle size
period of gel expansion/shrinking oscillation (SARP [1]; after addition of 1 pM SA): 4 to 5 min
SARP (ng/g fresh wt.) (SARP [4]): 30 ng/g fresh wt.
conformational state of SARP (SARP [5]; 10 μM applied to pre D-day appendices): induced a transition from state A in which SA undetectable in the tissue to state B
conformational state of SARP (SARP [5]; [6]): conformations that are more extended than state A

CC(=O)Oc1ccccc1C(=O)O [ASA, aspirin]
triggering of heat production (Sauromatum appendix): can also trigger heat production

O=C(O)c1ccc(O)c(O)c1 [3,4-DHBA, 3,4-dihydroxybenzoic acid]
effect on UV spectrum of SARP (SARP [3]; incubation with NADH): did not exert the same effect

O=C(O)c1c(O)cccc1O [2,6-DHBA, 2,6-dihydroxybenzoic acid]
effect on UV spectrum of SARP (SARP [3]; incubation with NADH): did not exert the same effect
triggering of heat production (Sauromatum appendix): can also trigger heat production
ESI-MS spectra of SARP compared with ASA and SA (SARP [5]; D-2 and D-3 appendix sections incubated overnight in 100 μM): more expanded
conformational state of SARP (SARP [5]; [6]): conformations that are more extended than state A
